Laboratory results from US20230117205A1, “B7-H4 ANTIBODY-DRUG CONJUGATES FOR THE TREATMENT OF CANCER” (SEAGEN INC., priority 2021, published 2023).

Assays:
OVCAR3 xenograft model = test: OVCAR3 xenograft, Study OVCAR3-e314; format: in vivo, SCID mice; conditions: 3 mg/kg, three weekly doses, i.v.
Procedure: Tumor volume was measured twice weekly until study day 60.
Female SCID mice were implanted with OVCAR3 tumor fragments (˜1 mm^3) subcutaneously at Charles River Discovery Services (NC). Once tumor volumes reached 150-200 mm^3, mice were dosed with 3 mg/kg of ADC every seven days for three total doses (q7dx3). Tumor volumes were measured twice weekly, and animals were euthanized when tumor volume reached 1000 mm^3. Stock concentrations of ADC were diluted to a desired concentration (with PBS) and injected i.v. into each treatment group.
Tumor growth inhibition (TGI) for each treatment group compared to the untreated group was analyzed on study day 26 as follows: % TGI=[1−(([…])/MTVuntreated)]*100, where MTV is the mean tumor volume. Statistical significance was determined using the Mann-Whitney U test (two-tailed).

[1] = tested on: F4/80+ macrophages in MDA-MB-468 xenograft tumors; test: IHC for F4/80+ macrophages in MDA-MB-468 xenograft tumors; format: in vivo, NSG mice; conditions: single 3 mg/kg dose; 7 days after treatment
Procedure: Specifically, female NSG mice were implanted with 1×10^6 MDA-MB-468 cells in 25% Matrigel H C subcutaneously. Once tumor volumes reached ˜250-300 mm^3, mice were randomized into treatment groups of 6 mice each and treated with a single 3 mg/kg dose of ADC or mAb, or vehicle control (20 mM Histidine buffer, pH 6.0) injected intraperitoneally (i.p.). Stock concentrations of ADC were diluted to desired concentration with 20 mM Histidine buffer, pH 6.0 or and stock concentration of mAb were diluted to desired concentration with 0.01% Tween20 in PBS. Twenty-four hours prior to dosing, each animal was treated with 10 mg/kg hIVIG. One week following treatment, tumors were harvested, cut in half, and processed for RNAseq (frozen at −80° C.) or formalin-fixed and paraffin-embedded for immunohistochemical (IHC) analysis.
For IHC, FFPE blocks were sectioned at 4 μm and sections were placed on charged slides. Slides were baked for 1 hr at 60° C. […]
Scanned images were analyzed with Halo image analysis software v. 3.1.1076 (Indica Labs), using the area quantification algorithm for CD11c and F4/80 and the cytonuclear algorithm for all other antibodies. […] Percent area of positive tissue, tumor and stroma were determined. […]

## SGN-B7H4V: ADC of fully human IgG1 anti-B7-H4 mAb conjugated to monomethyl auristatin E (MMAE) via a protease-cleavable valine-citrulline linker (vedotin)
OVCAR3 xenograft model
  mean tumor volume compared to the untreated group: reduction in mean tumor volume
OVCAR3 xenograft model; study day 26, compared to untreated
  Tumor growth inhibition (TGI): 48%
[1]
  proportion of F4/80+ macrophages in tumor nest and stroma: increase in the proportion of F4/80+ macrophages
